According to ChEMBL document CHEMBL5303711, “ECBD screening data for assay EOS300108” (2023):
Structures can show the parent of a compound that is named as a salt. The source made the active and inactive calls. The rule behind the calls is not given here.

Experiment: Cytotoxicity activity against human HepG2 cells assessed by CellTiter-Glo luminescent cell viability assay.
Type: toxicity, cell-based
Design: assay stage confirmatory assay, source tissue liver
Settings: HepG2 cells, read-out: IC50 relative
For `CC(C)Oc1cc(Nc2nc(N[C@@H](C)c3ccc(F)cn3)ncc2Cl)n[nH]1`, the CC50 was 2.6 µM (active). For `Cc1cc(C)n(C(=O)Cc2cccs2)n1`, the CC50 was 16 µM (inactive). For `Cc1sc2c(c1C)C(c1ccc(Cl)cc1)=N[C@@H](CC(=O)NCCCCCCCCNC(=O)COc1cccc3c1C(=O)N(C1CCC(=O)NC1=O)C3=O)c1nnc(C)n1-2` (some centres not stated), the CC50 was < 0.1 µM (active). With `CN1CCN(CCCCOc2ccc(-c3ccccc3)cc2)CC1` the CC50 was 4 µM (active). In the case of `CN(Cc1ccccc1)C1=CC(=[N+]2CCCC2)CC(C)(C)C1`, the CC50 is reported as 3.3 µM (active). With `CS(=O)(=O)c1cccc(CNc2nc(Nc3ccc4c(c3)CCC(=O)N4)ncc2C(F)(F)F)c1` the CC50 was 7.8 µM (active). With `C=CC(=O)Nc1ccc2ncnc(Nc3ccc(OCc4cccc(F)c4)c(Cl)c3)c2c1` the CC50 was 7.7 µM (active). With `Cc1occc1-c1cc(NC(=O)N2CCC[C@H]2c2cccn2C)no1` the CC50 was 1.1 µM (active). In the case of `CCc1ccc([N+]2=C3SCCCN3C[C@]2(O)c2ccc(OC)c(OC)c2)cc1`, the CC50 is reported as 10.9 µM (active). In the case of `COc1cc(-c2nc(-c3cccs3)no2)cc(OC)c1O`, the CC50 is reported as 0.4 µM (active). With `Cc1sc2c(c1C)C(c1ccc(Cl)cc1)=N[C@@H](CC(=O)Nc1ccc(O)cc1)c1nnc(C)n1-2` [BIRABRESIB] the CC50 was 1.3 µM (active). In the case of `CS(=O)(=O)N1CCc2ccc(NC(=O)Nc3ccc(Cl)cc3)cc21`, the CC50 is reported as 3.9 µM (inactive). With `O=C(CCN1CCCCC1)c1cc2ccccc2o1` the CC50 was 21.1 µM (inactive). With `CN(C)CCNC(=O)NC[C@H]1CC[C@@H]2[C@H](O1)c1cc(C(F)(F)F)ccc1N[C@H]2c1ccccc1` the CC50 was 3.5 µM (active). In the case of `COc1cc(O)cc(O)c1C(=O)/C=C/c1ccccc1` [CARDAMOMIN], the CC50 is reported as 18.3 µM (inactive). For `COc1ccc(CN(CC(=O)c2c(N)n(C)c(=O)n(C)c2=O)[C@@H](C)Cc2cccs2)cc1`, the CC50 was 7.2 µM (active). In the case of `O=C(Nc1cccc(Cl)c1O)c1sccc1Br`, the CC50 is reported as 0.8 µM (active). In the case of `COc1ccc(CNC(=O)C2CCN(S(=O)(=O)c3ccc4c(c3)CC(C)N4C(C)=O)CC2)cc1` (configuration not stated), the CC50 is reported as 29.7 µM (inactive). In the case of `Cc1ccc(/N=c2\ssnc2Cl)nc1`, the CC50 is reported as 16.4 µM (inactive). For `c1nc(N2CCN(Cc3ccc4c(c3)OCO4)CC2)c2ccsc2n1`, the CC50 was 5.1 µM (active). With `CN(C)CCNCc1cccc(OCc2ccc(F)cc2)c1` the CC50 was 15 µM (inactive). In the case of `O=c1ccc2ccc(OCCCCN3CCN(c4cccc5sccc45)CC3)cc2[nH]1` [BREXPIPRAZOLE], the CC50 is reported as 8.4 µM (active). With `CC1=NNc2nc3c(c(=O)n(Cc4ccccc4Cl)c(=O)n3C)n2[C@H]1C` the CC50 was 21.1 µM (inactive). For `COc1ccc(CCN2Cc3ccc(N)cc3C2)cc1`, the CC50 was 20.2 µM (inactive). In the case of `COc1cc(-c2nn(CCN3CCC(N(C)C)CC3)c3ncnc(N)c23)ccc1NC(=O)OC(C)(C)C`, the CC50 is reported as 2.1 µM (active). For `CC(C)C[C@H](NC(=O)[C@H](Cc1ccccc1)NC(=O)c1cnccn1)B(O)O` [BORTEZOMIB], the CC50 was < 0.1 µM (active). For `C[C@@H]1C[C@@H]([C@H](O)CC2CC(=O)NC(=O)C2)C(=O)[C@@H](C)C1` [CYCLOHEXIMIDE], the CC50 was 0.4 µM (active). With `CN(Cc1cc(=O)n2cccc(O)c2n1)CC1(c2ccccc2)CC1(C)C` (configuration not stated) the CC50 was 2.9 µM (active). With `Cc1ccc(S(=O)(=O)N[C@@H](Cc2ccccc2)C(=O)CCl)cc1` [TPCK] the CC50 was 7.9 µM (active). For `c1cc2c(cc1-c1ccc3c(n1)CCCN3)CCN2`, the CC50 was 13.5 µM (inactive). For `C[C@@H]1CC[C@@]2(OC1)O[C@H]1C[C@H]3[C@@H]4CC=C5C[C@@H](O[C@@H]6O[C@H](CO)[C@@H](O[C@@H]7O[C@@H](C)[C@H](O)[C@@H](O)[C@H]7O)[C@H](O)[C@H]6O[C@@H]6O[C@@H](C)[C@H](O)[C@@H](O)[C@H]6O)CC[C@]5(C)[C@H]4CC[C@]3(C)[C@H]1[C@@H]2C` [DIOSCIN], the CC50 was 0.7 µM (active). With `O=C(Cn1ncc(Cl)c(Cl)c1=O)NCc1ccccc1` the CC50 was 5.4 µM (active). In the case of `COc1ccc2c(O[C@@H]3C[C@H]4C(=O)N[C@]5(C(=O)NS(=O)(=O)C6CC6)C[C@H]5/C=C\CCCCN(C)C(=O)[C@@H]4C3)cc(-c3nc(C(C)C)cs3)nc2c1C`, the CC50 is reported as 8.6 µM (active). In the case of `CC(C)n1nc(-c2ccc3oc(N)nc3c2)c2c(N)ncnc21` [SAPANISERTIB], the CC50 is reported as 0.2 µM (active). With `CSc1ccc2c(c1)N(CCC1CCCCN1C)c1ccccc1S2` (configuration not stated) [THIORIDAZINE] the CC50 was 3.8 µM (active). With `O=C1/C(=C/c2ccc([N+](=O)[O-])cc2)CS(=O)(=O)C/C1=C\c1ccc([N+](=O)[O-])cc1` the CC50 was 0.1 µM (active). In the case of `O=S(=O)(Nc1cccc2cccnc12)c1ccc2c(c1)OCCO2`, the CC50 is reported as 10.4 µM (active). In the case of `Clc1ccc(COC(Cn2ccnc2)c2ccc(Cl)cc2Cl)c(Cl)c1` (configuration not stated) [MICONAZOLE NITRATE], the CC50 is reported as 12 µM (active). For `Cc1ccccc1-c1nc(C#N)c(NCC(C)N2CCN(C)CC2)o1` (configuration not stated), the CC50 was 10.8 µM (active). With `CC(C)c1ccccc1OCC(=O)Nc1cccnc1` the CC50 was 4 µM (active). For `CN(C)C/C=C/C(=O)Nc1cc2c(Nc3ccc(F)c(Cl)c3)ncnc2cc1O[C@H]1CCOC1` [AFATINIB DIMALEATE], the CC50 was 2.3 µM (active). With `CN(C)c1cccc(S(=O)(=O)Nc2ccc3ncccc3c2)c1` the CC50 was 3.3 µM (active). For `CCc1cccc(NC(=O)N2CCN(c3ccnc(N4CCCC4)n3)CC2)c1`, the CC50 was 13.5 µM (inactive). In the case of `C=CC(=O)Nc1ccc(CN(C(=O)Nc2c(Cl)c(OC)cc(OC)c2Cl)c2cc(Nc3ccc(N4CCN(C)CC4)cc3)ncn2)cc1`, the CC50 is reported as 4.7 µM (active). For `O=C(NC1CCNCC1)c1n[nH]cc1NC(=O)c1c(Cl)cccc1Cl` [AT-7519], the CC50 was 0.2 µM (active). In the case of `COc1ccc(-c2cn3nc(N4CCCC(C(=O)NCCN5CCCC5)C4)sc3n2)cc1` (configuration not stated), the CC50 is reported as 5.1 µM (active). In the case of `CC(C)(C)N1C(=O)C(Nc2ccc(N3CCCCC3)cc2)=C(c2ccccc2)S1(=O)=O`, the CC50 is reported as 4.9 µM (active). With `O=C(Nc1nccs1)c1cccc(S(=O)(=O)N2CCN(c3ccc(F)cc3)CC2)c1` the CC50 was 3.1 µM (active). In the case of `O=C1Nc2ccccc2C2(CCN(CCc3ccc(C(F)(F)F)cc3)CC2)O1`, the CC50 is reported as 10.7 µM (active). In the case of `Cc1cccc(Cl)c1OCCN(C)CC1(C)COC1`, the CC50 is reported as 50 µM (inactive). In the case of `CNCCCC1c2ccccc2C=Cc2ccccc21` [PROTRIPTYLINE HYDROCHLORIDE], the CC50 is reported as 8.9 µM (active). For `Cc1cc(OCC(=O)Nc2nc(-c3ccccn3)cs2)no1`, the CC50 was 8.8 µM (active). With `COc1cc(N2CCC(N)CC2)ccc1Nc1ncc(Cl)c(-c2c[nH]c3ccccc23)n1` the CC50 was 4.2 µM (active). In the case of `Cc1cc2sc(NC(=O)NCCNS(C)(=O)=O)nc2cc1F`, the CC50 is reported as 2.3 µM (active). In the case of `CCc1onc(C)c1C1CCCN1Cc1ccc(OC)c(O)c1` (configuration not stated), the CC50 is reported as 6.1 µM (active). With `CCOc1ccc(C(=O)Nc2nc3ccc(S(=O)(=O)N(C)C)cc3s2)cc1` the CC50 was 19.3 µM (inactive). In the case of `CC(=O)N1c2ccc(S(=O)(=O)N3CCOCC3)cc2CC1C(=O)NCCN1CCCCCC1` (configuration not stated), the CC50 is reported as 50 µM (inactive). For `O=C1Nc2cc(Cl)ccc2Oc2ccc(S(=O)(=O)N3CCCC3)cc21`, the CC50 was 6.4 µM (active). In the case of `CN(C)S(=O)(=O)c1cccc(NC(=O)CSc2cccc3cccnc23)c1`, the CC50 is reported as 3.5 µM (active). For `O=C(Nc1nccs1)C1=C(c2ccccc2)S(=O)(=O)CCO1`, the CC50 was 7.7 µM (active). For `O=C(Nc1ccnn1-c1ccc(Br)cn1)c1ccccn1`, the CC50 was 23.7 µM (inactive). With `CNCCC(Oc1ccc(C(F)(F)F)cc1)c1ccccc1` (configuration not stated) [FLUOXETINE HYDROCHLORIDE] the CC50 was 6.6 µM (active). In the case of `CC(=O)c1ccc(-c2ccc(C(=O)Nc3ncc(C)o3)o2)cc1`, the CC50 is reported as 4.2 µM (active). For `CCc1c2c(nc3ccc(OC(=O)N4CCC(N5CCCCC5)CC4)cc13)-c1cc3c(c(=O)n1C2)COC(=O)[C@]3(O)CC` [IRINOTECAN], the CC50 was 10.1 µM (active). For `Cc1ccc(NCc2cc(=O)n3c(C)csc3n2)c(F)c1`, the CC50 was 7.2 µM (active). In the case of `Cc1cc(-c2csc(NC(=O)c3coc(S(=O)(=O)N(C)C)c3)n2)c(C)o1`, the CC50 is reported as 16.5 µM (inactive). With `CC(C)[C@H](NCC(=O)N1CCN(c2ccccn2)CC1)c1ccc(Cl)cc1` the CC50 was 8 µM (active). In the case of `O=C(Nc1ncc(-c2ccccc2)s1)c1ccccn1`, the CC50 is reported as 2.3 µM (active). With `CCOC(=O)[C@H](Cc1ccc([N+](=O)[O-])cc1)NC(=O)c1ccccc1` the CC50 was 15.4 µM (active). With `CN1CCC(NC(=O)c2ccc3c(c2)n(Cc2ccccc2)c(=O)c2ccnn23)CC1` the CC50 was 9.8 µM (active). For `CCN1CCN(c2cc3c(cc2S(=O)(=O)N2CCCCCC2)C(=O)Nc2ccccc2O3)CC1`, the CC50 was 10.9 µM (active). In the case of `CCN(CC)C(=S)S` [DITIOCARB SODIUM], the CC50 is reported as 6.6 µM (active). With `COc1ccc(C(=O)N2CCCN(CCc3nc4ccccc4n3C)CC2)cc1` the CC50 was 11.3 µM (inactive). For `O=C(Nc1ccc(Cl)cc1)Nc1ccc(Cl)c(Cl)c1` [TRICLOCARBAN], the CC50 was 42.9 µM (inactive). For `CN1CCCC(n2nc(Cc3ccc(Cl)cc3)c3ccccc3c2=O)CC1` (configuration not stated) [AZELASTINE HYDROCHLORIDE], the CC50 was 10 µM (active). In the case of `CC(=O)N1CCCc2cc(S(=O)(=O)N3CCCC(C(=O)N4CCN(c5ccccc5)CC4)C3)ccc21` (configuration not stated), the CC50 is reported as 12.7 µM (inactive). With `Nc1nc(N)c2nc(CNc3ccc(C(=O)N[C@@H](CCC(=O)O)C(=O)O)cc3)cnc2n1` [AMINOPTERIN] the CC50 was 0.1 µM (active). For `Cc1cc(C(=O)Nc2cc(Cl)ccc2N2CCN(C)CC2)no1`, the CC50 was 11.9 µM (active). For `OC1(CNCCSCc2cccc(Cl)c2)CCNC1` (configuration not stated), the CC50 was 8.4 µM (active). For `CC(C)CNC(=O)N1CC(Oc2ccc(-c3noc(-c4cccnc4)n3)cc2)C1`, the CC50 was 5.4 µM (active). For `Nc1nc2nn[nH]c2c(=O)[nH]1` [8-AZAGUANINE], the CC50 was 7.5 µM (active). With `O=C(Nc1cnccc1Cl)N1CCN(Cc2ccc3c(c2)OC(F)(F)O3)CC1` [JNJ-42165279] the CC50 was 11.9 µM (inactive). With `CC(C)N(CCNS(=O)(=O)c1ccc(-n2ncc(Cl)c(Cl)c2=O)cc1)C(C)C` the CC50 was 1.3 µM (active). With `Cc1coc2c1C(=O)C(=O)c1c-2ccc2c1CCCC2(C)C` [TANSHINONE IIA] the CC50 was 5 µM (active). With `O[C@H]1CCN(Cc2csc(-c3ccoc3)n2)C12CCCC2` the CC50 was 5 µM (active). For `Cc1cccc(C(=O)Nc2ccc(C(=O)Nc3cccnc3)cc2)n1`, the CC50 was 5.8 µM (active). With `CC(C)(C)NS(=O)(=O)c1ccc(C(=O)Nc2ccc(Oc3cccnc3)nc2)o1` the CC50 was 11.8 µM (inactive).
